Five molecules from patent US20230203440A1, “AXIAL STEM CELLS, METHODS OF PRODUCING AND USES THEREOF” (HELMHOLTZ ZENTRUM MUNCHEN - DEUTSCHES FORSCHUNGSZENTRUM FUR …, priority 2020, published 2023) can be followed below.

The subject of one data set is H9 hESC line. The experiment in a line: Axial stem cell derivation from hESCs by serial passaging in maintenance medium with ligands. The format is cell-based, human. The note with it: for derivation of stable lines on addition of the ligand: added to maintenance medium. On the procedure: (§1) Cells were seeded as described above and treated with 10 μM CHIR for 24 hours. Afterwards cells were split at 1:20-1:30 ratio into Matrigel-coated 6-well plates containing maintenance medium (RPMI-1640 supplemented with L-Glutamine, 1× non-essential amino acids, 1× B-27 supplement without vitamin A and the respective ligands (see Table 1) and the cultures were incubated until they became confluent. Confluent cultures were routinely split at 1:10-1:20 ratio until the end of establishment phase defined at passage 9. Splitting was done with either Passaging solution XF or Versene (Life Technologies). FGF2-containing medium was prepared freshly every week, the media without FGF2—at least every 2 weeks. No manual colony picking or scraping off the differentiated cells was employed at any stage during the establishment of cell lines.
Total RNA was isolated using RNeasy mini kit (Qiagen). cDNA was synthesized from 0.2-1 μg of total RNA (normalized amount between samples within each experiment) using Verso cDNA synthesis kit (Thermo Scientific) according to manufacturers instructions. 1 μl of cDNA (1:5 dilutions) were used as template in 10 μl qPCR reactions. PCR was set up using either pre-designed Taqman Gene Expression Assays together with Taqman Gene Expression Master Mix (both from Thermo Scientific) or custom-designed primers together with Power SYBR Green master mix (Thermo Scientific). All primer and Taqman probe details are listed in, e.g., Table 2. Primer concentration in the reactions was 250 nM for all primers. PCR was performed on QuantStudio 12K Flex Real-Time PCR System (Thermo Scientific) using pre-defined cycling parameters. 2 technical replicates were run for each reaction. Taqman assays and primers used are listed in, e.g., Table 2. GAPDH served as a housekeeping gene in all experiments. Relative fold changes (FC) in gene expression were calculated using ΔΔCt method (Livak and Schmittgen, 2001). Results are presented as mean ΔΔCt±standard error of the mean between biological replicates, unless indicated otherwise. Plots were produced using ggplot2 package (Wickham, 2009) in RStudio software running R version 3.5.1 (R Core Team, 2018).
For immunofluorescent analysis, cells were seeded onto either matrigel-coated glass coverslips or into matrigel-coated 4-well μ-slides (Ibidi). For IF on differentiated motor neurons, AxCS lines were differentiated directly on the coverslips. […] Primary antibody dilutions (e.g., Table 3) in the blocking buffer were added and incubated overnight at 4° C. Next day, cells were washed with PBS 3 times and incubated with secondary antibodies diluted in PBS for 1 hours at RT. Coverslips were mounted using ProLong Gold mounting reagent with DAPI. Images were obtained at 63× magnification using Zeiss Axio Observer.Z1 epifluorescent microscope equipped with Apotome.2 and Zen software (Zeiss).

A further data set concerns hESCs. The experiment in a line: Continuous CHIR99021 treatment of hESCs (time course, qPCR and RNA-seq). Particulars: continuous 10 μM treatment of hESCs, compared to transient activation for 24 hours. It is filed as cell-based, human. On the procedure: In time course experiments cells were dissociated using Accutase (Sigma) and seeded into 12-well plates at 2.5×10^5 cells per well in mTesR1 medium supplemented with 10 μM Y-27632 (R&D). 24 hours later medium was replaced with differentiation medium: RPMI-1640 with L-Glutamine and 1× B-27 supplement without insulin containing 10 μM CHIR99021 (Tocris). In case of beta-catenin overexpression, the procedure was the same, except that CHIR99021 was replaced with 1 μg/ml doxycycline (Clontech). All cell culture media components were from Life Technologies unless indicated otherwise.
Total RNA was isolated using RNeasy mini kit (Qiagen). cDNA was synthesized from 0.2-1 μg of total RNA (normalized amount between samples within each experiment) using Verso cDNA synthesis kit (Thermo Scientific) according to manufacturers instructions. […] Relative fold changes (FC) in gene expression were calculated using ΔΔCt method (Livak and Schmittgen, 2001). […]
3 μg of total RNA were treated with TURBO DNase (Life Technologies) and purified using RNeasy Minelute RNA cleanup kit (Qiagen). RNA quality was assessed using microcapillary electrophoresis on Agilent 2100 Bioanalyzer with RNA Pico 6000 kit (Agilent) and only RNA with RIN values >8 was processed further. […] The quality of the libraries was assessed using Agilent 2100 Bioanalyzer with the DNA 1000 kit (Agilent). […] Sequencing depth was 12-14 Mio reads per sample. […]

For a further data set, the system named is human iPSC line HMGU #1. The experiment in a line: Axial stem cell derivation from human iPS cell line. The format is cell-based. Particulars: 10 μM CHIR99021 with inhibition of TGF-β, human iPSCs. As to the method: as §1, with “FIG. 6: A) Schematic of axial stem cell derivation from human iPS cell line (HMGU #1). μM concentrations refer to CHIR99021. […] B) Quantitative qPCR analysis of marker gene expression in iPS-derived axial stem cell lines at passage 9. Expression is normalized to GAPDH and plotted as log2 fold change over undifferentiated parental iPS cell line. Error bars represent standard error of the mean between biological replicates (derivations). n=1 to 6. Cells” for “Cells”

With FGF2, the “sustained TBXT expression on passaging” value in the data set with H9 hESC line (passaging in presence of CHIR99021 with or without FGF2) was “sustained expression required the presence of FGF2”.

As for `Cc1c[nH]c(-c2cnc(NCCNc3ccc(C#N)cn3)nc2-c2ccc(Cl)cc2Cl)n1` [CHIR99021], in the data set on hESCs, the TBXT expression entry is given as “sustained high level of TBXT”. For the same molecule, the “marker expression of derived cell lines” value is “high levels of SOX2 in conjunction with PAX6, but no T, CDX2, MIXL1 or EOMES” with H9 hESC line (5 μM CHIR99021 alone); “high levels of SOX2, TBXT, CDX2, MIXL1, EOMES and very low level or no PAX6” in the data set with H9 hESC line (5 μM CHIR99021 with FGF2); “intermediate levels of TXBT and PAX6” in the data set on H9 hESC line (7.5 μM CHIR99021). Also, the toxicity to conversion entry in the data set on H9 hESC line (10 μM CHIR99021, hESC) is given as “toxic to hESC conversion”. The “derivation of cell lines” value is reported as “enabled the derivation of lines that exhibited compact stem cell colony morphology” with H9 hESC line (5 or 7.5 μM CHIR99021, presence or absence of FGF2, hESCs) and “did not promote the formation of cell lines” with H9 hESC line (CHIR99021 lower than 5 μM). Also, the “SOX2 expression of passaged progeny” value with H9 hESC line (passaging beginning at 24 hours, in presence of CHIR99021) is on record as “stably expressing SOX2 at a comparable level to undifferentiated hESCs”. Besides, the “derivation of axial cell lines” value with human iPSC line HMGU #1 is listed as “permissive for the derivation of SOX2/TXBT axial cell lines”.

On to `NC(=O)c1ccc(-c2nc(-c3ccc4c(c3)OCO4)c(-c3ccccn3)[nH]2)cc1` [SB-431542], for which the “spontaneous differentiation and colony compactness of the stem cell lines” value with H9 hESC line (TGF-β inhibition) was “reduced spontaneous differentiation and maintained the lines as more compact colonies”. Also, in the data set with H9 hESC line (TGF-β inhibitor applied to maintenance medium), the “cell and colony morphology of derived lines” value is “created more compact cells and denser colonies”.

With “TGF-β: Human recombinant TGF-β1 (Peprotech)”, the “derivation of stable lines on addition of the ligand” value in the data set on H9 hESC line is “prohibited the deviation of stable lines altogether”.

B1: BMP4: Human recombinant BMP4 (R&D Systems) (protein, UniProt P12644 293-408, looked up)
Bone morphogenetic protein 4: SPKHHSQRARKKNKNCRRHSLYVDFSDVGWNDWIVAPPGYQAFYCHGDCPFPLADHLNSTNHAIVQTLVNSVNSSIPKACCVPTELSAISMLYLDEYDKVVLKNYQEMVVEGCGCR
As to B1, in the data set with H9 hESC line, the “derivation of stable lines on addition of the ligand” value was “prohibited the deviation of stable lines altogether”.
